Data as given in patent US20130123222A1, “Synergistic Anti-Cancer Activity of SR16388 with Anti-Mitotic Drugs” (SRI INTERNATIONAL, INC., priority 2011, published 2013).

How the values were obtained:
Assay in all cases: 11×7 synergism hit rate
Format in all cases: cell-based
HL60 = conditions: Leukemia HL60, combination with SR16388
Source text: (§1) SR16388 was synthesized in house.
(§2) Within the same type of cancer cells, some cell lines have more synergistic hits than others. Melanoma and breast cancer cell lines had the highest hit rate.

SF268 = conditions: CNS Cancer SF268, combination with SR16388
Source text: as §1, §2

NCIH226 = conditions: NSCLC NCIH226, combination with SR16388
Source text: as §1, §2

SNB75 = conditions: CNS Cancer SNB75, combination with SR16388
Source text: as §1, §2

MCF7 = conditions: Breast Cancer MCF7, combination with SR16388
Source text: as §1, §2

CAKI1 = conditions: Renal Cancer CAKI1, combination with SR16388
Source text: as §1, §2

U031 = conditions: Renal Cancer U031, combination with SR16388
Source text: as §1, §2

CCRFCEM = conditions: Leukemia CCRFCEM, combination with SR16388
Source text: as §1, §2

7860 = conditions: Renal Cancer 7860, combination with SR16388
Source text: as §1, §2

KM12 = conditions: Colon Cancer KM12, combination with SR16388
Source text: as §1, §2

U251 = conditions: CNS Cancer U251, combination with SR16388
Source text: as §1, §2

COLO205 = conditions: Colon Cancer COLO205, combination with SR16388
Source text: as §1, §2

MALME = conditions: Melanoma MALME, combination with SR16388
Source text: as §1, §2

BT549 = conditions: Breast Cancer BT549, combination with SR16388
Source text: as §1, §2

SKOV3 = conditions: Ovarian Cancer SKOV3, combination with SR16388
Source text: as §1, §2

EKVX = conditions: NSCLC EKVX, combination with SR16388
Source text: as §1, §2

HCC2998 = conditions: Colon Cancer HCC2998, combination with SR16388
Source text: as §1, §2

K562 = conditions: Leukemia K562, combination with SR16388
Source text: as §1, §2

TK10 = conditions: Renal Cancer TK10, combination with SR16388
Source text: as §1, §2

IGROV1 = conditions: Ovarian Cancer IGROV1, combination with SR16388
Source text: as §1, §2

LOXIMVI = conditions: Melanoma LOXIMVI, combination with SR16388
Source text: as §1, §2

SF295 = conditions: CNS Cancer SF295, combination with SR16388
Source text: as §1, §2

SF539 = conditions: CNS Cancer SF539, combination with SR16388
Source text: as §1, §2

SKMEL2 = conditions: Melanoma SKMEL2, combination with SR16388
Source text: as §1, §2

NCIH522 = conditions: NSCLC NCIH522, combination with SR16388
Source text: as §1, §2

HT29 = conditions: Colon Cancer HT29, combination with SR16388
Source text: as §1, §2

SKMEL5 = conditions: Melanoma SKMEL5, combination with SR16388
Source text: as §1, §2

SN12C = conditions: Renal Cancer SN12C, combination with SR16388
Source text: as §1, §2

MDAMB231 = conditions: Breast Cancer MDAMB231, combination with SR16388
Source text: as §1, §2

RPMI8226 = conditions: Leukemia RPMI8226, combination with SR16388
Source text: as §1, §2

T47D = conditions: Breast Cancer T47D, combination with SR16388
Source text: as §1, §2

UACC62 = conditions: Melanoma UACC62, combination with SR16388
Source text: as §1, §2

HCT15 = conditions: Colon Cancer HCT15, combination with SR16388
Source text: as §1, §2

NCIH23 = conditions: NSCLC NCIH23, combination with SR16388
Source text: as §1, §2

HOP62 = conditions: NSCLC HOP62, combination with SR16388
Source text: as §1, §2

NCIH460 = conditions: NSCLC NCIH460, combination with SR16388
Source text: as §1, §2

UACC257 = conditions: Melanoma UACC257, combination with SR16388
Source text: as §1, §2

DU145 = conditions: Prostate Cancer DU145, combination with SR16388
Source text: as §1, §2

A549 = conditions: NSCLC A549, combination with SR16388
Source text: as §1

CC(=O)O[C@@]12CO[C@@H]1C[C@H](O)[C@@]1(C)C(=O)[C@H](O)C3=C(C)[C@@H](OC(=O)[C@H](O)[C@@H](NC(=O)OC(C)(C)C)c4ccccc4)C[C@@](O)([C@@H](OC(=O)c4ccccc4)[C@H]21)C3(C)C [Docetaxel]
% Hit rate (HL60): 21% | % Hit rate (SF268): 18% | % Hit rate (NCIH226): 19% | % Hit rate (SNB75): 5% | % Hit rate (MCF7): 19% | % Hit rate (CAKI1): 16% | % Hit rate (U031): 4% | % Hit rate (CCRFCEM): 12% | % Hit rate 7860: 10% | % Hit rate (KM12): 6% | % Hit rate (U251): 12% | % Hit rate (COLO205): 35% | % Hit rate (MALME): 6% | % Hit rate (BT549): 5% | % Hit rate (SKOV3): 12% | % Hit rate (EKVX): 0% | % Hit rate (HCC2998): 6% | % Hit rate (K562): 0% | % Hit rate (TK10): 10% | % Hit rate (IGROV1): 3% | % Hit rate (LOXIMVI): 8% | % Hit rate (SF295): 8% | % Hit rate (SF539): 13% | % Hit rate (SKMEL2): 12% | % Hit rate (NCIH522): 8% | % Hit rate (HT29): 21% | % Hit rate (SKMEL5): 10% | % Hit rate (SN12C): 8% | % Hit rate (MDAMB231): 10% | % Hit rate (RPMI8226): 1% | % Hit rate (T47D): 19% | % Hit rate (UACC62): 16% | % Hit rate (HCT15): 12% | % Hit rate (NCIH23): 5% | % Hit rate (HOP62): 1% | % Hit rate (NCIH460): 31% | % Hit rate (UACC257): 18% | % Hit rate (DU145): 1% | % Hit rate (A549): 4%
